Measured values reported in the supplement of paper PMC13380429.

Key:
Conditions in all cases: 72 h
[1] = test system: Calu-3; test: cell viability relative to DMSO; higher = less toxic
[2] = test system: Caco-2; test: as above
[3] = test system: HepG2; test: as above
[4] = test system: U2OS; test: as above
[5] = test system: Calu-3; test: drug sensitivity score (DSS) for viability; higher = more toxic; extreme values may be limits of the assay
[6] = test system: Caco-2; test: as above
[7] = test system: HepG2; test: as above
[8] = test system: U2OS; test: as above
[9] = test system: Calu-3; test: relative viability EC50 (midpoint between 100% and the lowest measured viability); higher = less toxic
[10] = test system: Caco-2; test: as above
[11] = test system: HepG2; test: as above
[12] = test system: U2OS; test: as above
[13] = test system: Vero E6; test: cell viability relative to DMSO; higher = less toxic
[14] = test system: Vero E6; test: drug sensitivity score (DSS) for viability; higher = more toxic; extreme values may be limits of the assay
[15] = test system: Vero E6; test: relative viability EC50 (midpoint between 100% and the lowest measured viability); higher = less toxic

| Compound | cell viability ([1]; 1 nM) [%] | cell viability ([1]; 10 nM) [%] | cell viability ([1]; 100 nM) [%] | cell viability ([1]; 1000 nM) [%] | cell viability ([1]; 10000 nM) [%] | cell viability ([2]; 1 nM) [%] | cell viability ([2]; 10 nM) [%] | cell viability ([2]; 100 nM) [%] | cell viability ([2]; 1000 nM) [%] | cell viability ([2]; 10000 nM) [%] | cell viability ([3]; 1 nM) [%] | cell viability ([3]; 10 nM) [%] | cell viability ([3]; 100 nM) [%] | cell viability ([3]; 1000 nM) [%] | cell viability ([3]; 10000 nM) [%] | cell viability ([4]; 1 nM) [%] | cell viability ([4]; 10 nM) [%] | cell viability ([4]; 100 nM) [%] | cell viability ([4]; 1000 nM) [%] | cell viability ([4]; 10000 nM) [%] | drug sensitivity score [5] | drug sensitivity score [6] | drug sensitivity score [7] | drug sensitivity score [8] | relative viability EC50 [9] [µM] | relative viability EC50 [10] [µM] | relative viability EC50 [11] [µM] | relative viability EC50 [12] [µM] | cell viability ([13]; 1 nM) [%] | cell viability ([13]; 10 nM) [%] | cell viability ([13]; 100 nM) [%] | cell viability ([13]; 1000 nM) [%] | cell viability ([13]; 10000 nM) [%] | drug sensitivity score [14] | relative viability EC50 [15] [µM] |
| --- | --- | --- | --- | --- | --- | --- | --- | --- | --- | --- | --- | --- | --- | --- | --- | --- | --- | --- | --- | --- | --- | --- | --- | --- | --- | --- | --- | --- | --- | --- | --- | --- | --- | --- | --- |
| Cc1cn([C@H]2C[C@H](N=[N+]=[N-])[C@@H](CO)O2)c(=O)[nH]c1=O [zidovudine] | 107 | 89.6 | 101 | 98.9 | 103 | 94.9 | 92.6 | 105 | 98 | 98 | 101 | 109 | 99 | 94.6 | 104 | 103 | 104 | 95.2 | 103 | 94.3 | 0 | 0 | 0 | 0 | > 10 | > 10 | > 10 | > 10 |  |  |  |  |  |  |  |
| CCc1ccc(/C=C2/SC(=S)NC2=O)cc1 | 101 | 87 | 97.9 | 93.4 | 103 | 102 | 85.3 | 101 | 108 | 93.3 | 98.2 | 106 | 93.7 | 95.9 | 95.6 | 97.9 | 95.9 | 99.8 | 94.9 | 96.7 | 0 | 0 | 0 | 0 | > 10 | > 10 | > 10 | > 10 |  |  |  |  |  |  |  |
| COc1ccc(S(=O)(=O)N2CCCN(S(=O)(=O)c3ccc(OC)c(OC)c3)CC2)cc1OC | 89.1 | 84.7 | 102 | 94.4 | 92.1 | 89.4 | 90.5 | 94.5 | 102 | 108 | 99.3 | 100 | 79.4 | 98.7 | 110 | 98.6 | 96.1 | 99.3 | 100 | 97 | 0 | 0 | 0 | 0 | > 10 | > 10 | > 10 | > 10 |  |  |  |  |  |  |  |
| Cc1nnc(NS(=O)(=O)c2ccc(N)cc2)s1 [sulfamethizole] | 96.3 | 98.4 | 96.7 | 99.2 | 105 | 88.1 | 85.7 | 98.9 | 93.6 | 99 | 102 | 111 | 98 | 108 | 90.4 | 103 | 98.1 | 103 | 99.2 | 99.2 | 0 | 0 | 0 | 0 | > 10 | > 10 | > 10 | > 10 |  |  |  |  |  |  |  |
| C[C@]12CC[C@H](O)CC1=CC[C@@H]1[C@@H]2CC[C@]2(C)C(n3cnc4ccccc43)=CC[C@@H]12 [galeterone] | 91.9 | 95 | 85.5 | 99.6 | 90.2 | 95.6 | 102 | 89.1 | 88.3 | 45.9 | 97.8 | 102 | 97.5 | 99.3 | 77.4 | 96.4 | 102 | 93.4 | 95.1 | 92.9 | 0 | 4.6 | 0.9 | 0 | > 10 | 1.72 | > 10 | > 10 | 100 | 99 | 102 | 99.2 | 74.5 | 1.1 |  |
| CCC1(c2c[nH]cn2)Cc2ccccc2C1 [atipamezole] | 96.9 | 101 | 94.9 | 106 | 93.5 | 104 | 115 | 104 | 100 | 108 | 102 | 95.5 | 111 | 100 | 109 |  |  |  |  |  | 0 | 0 | 0 |  | > 10 | > 10 | > 10 |  |  |  |  |  |  |  |  |
| O=C1c2ccc(Nc3ccc(F)cc3F)cc2CCc2ccc(OC[C@H](O)CO)cc21 [skepinone-L] | 97.2 | 94 | 96.2 | 101 | 94.7 | 103 | 84.1 | 89.2 | 91.7 | 73.4 | 102 | 109 | 98.8 | 101 | 75.2 | 96.5 | 91.8 | 91.4 | 90.2 | 89.5 | 0 | 2.5 | 0.8 | 0.1 | > 10 |  | > 10 | > 10 | 103 | 103 | 86.8 | 89.4 | 80.3 | 1.9 | > 10 |
| CC#C[C@@H](CC(=O)O)c1ccc(OCc2cccc(-c3ccc(C(F)(F)F)cc3)c2)cc1 [AMG-837] | 104 | 104 | 110 | 92.7 | 94.9 | 102 | 95.3 | 97.7 | 94.9 | 93.2 |  |  |  |  |  | 101 | 94.7 | 99.9 | 95 | 93.9 | 0 | 0 |  | 0 | > 10 | > 10 |  | > 10 | 97.5 | 100 | 95.8 | 102 | 97.4 | 0 | > 10 |
| CCCn1c(=O)c2nc(C34CC5CC(CC3C5)C4)[nH]c2n(CCC)c1=O [KW-3902] | 83.8 | 89.3 | 92.6 | 96.6 | 100 | 95.9 | 94.4 | 101 | 95.1 | 82.5 | 94.2 | 92.9 | 98.2 | 101 | 91.6 | 98.8 | 96.5 | 100 | 99.5 | 102 | 0 | 0.9 | 0 | 0 | > 10 | > 10 | > 10 | > 10 |  |  |  |  |  |  |  |
| c1cn2cc(-c3ccc4cn[nH]c4c3)nc(Nc3ccc(N4CCOCC4)cc3)c2n1 [GS-9973] | 95.2 | 103 | 90 | 94.3 | 92.7 | 108 | 108 | 98.3 | 99.7 | 91.4 | 105 | 103 | 100 | 93.8 | 92.5 | 94.1 | 101 | 98.2 | 98 | 92.2 | 0 | 0 | 0 | 0 | > 10 | > 10 | > 10 | > 10 |  |  |  |  |  |  |  |
| CC(C)(C)Sc1c(CC(C)(C)C(=O)O)n(Cc2ccc(Cl)cc2)c2ccc(OCc3ccc4ccccc4n3)cc12 [quiflapon] | 91.5 | 97.3 | 98.7 | 102 | 110 | 104 | 102 | 97 | 96 | 102 | 105 | 95.6 | 96.8 | 98.3 | 104 | 102 | 108 | 104 | 99.6 | 109 | 0 | 0 | 0 | 0 | > 10 | > 10 | > 10 | > 10 |  |  |  |  |  |  |  |
| Clc1ccc(C(Cn2ccnc2)OCc2c(Cl)cccc2Cl)c(Cl)c1 (stereo not given) [isoconazole] | 95.8 | 97.9 | 105 | 98.5 | 84.2 | 97 | 96.4 | 96.8 | 100 | 71.7 |  |  |  |  |  | 104 | 103 | 122 | 110 | 92 | 0.4 | 1.2 |  | 0 | > 10 |  |  | > 10 | 102 | 101 | 97.7 | 95.7 | 101 | 0 | > 10 |
| CN(C)C1CCN(C(=O)c2ccc(NC(=O)Nc3ccc(-c4nc(N5CCOCC5)nc(N5CCOCC5)n4)cc3)cc2)CC1 | 105 | 90.5 | 87.2 | 65.6 | 35.5 | 93.8 | 93.7 | 102 | 87.1 | 66.7 | 98.5 | 108 | 95.8 | 100 | 84.3 | 97.7 | 97.8 | 100 | 92.1 | 79.7 | 8.3 | 3.3 | 0.3 | 1.5 | 0.635 |  | > 10 | > 10 | 94.2 | 100 | 89.3 | 90.7 | 107 | 0 | > 10 |
| CCC1=C[C@@H]2CN3CCc4c([nH]c5ccccc45)[C@@](C(=O)OC)(C2)[C@@H]13 [catharanthine] | 98.5 | 107 | 98.4 | 90.9 | 101 | 93.7 | 92.6 | 95.9 | 103 | 91.9 |  |  |  |  |  | 92.3 | 100 | 95.7 | 97.1 | 98.4 | 0 | 0 |  | 0 | > 10 | > 10 |  | > 10 | 103 | 93.4 | 98.4 | 101 | 110 | 0 | > 10 |
| O=C(Nc1c[nH]nc1-c1nc2ccc(CN3CCOCC3)cc2[nH]1)NC1CC1 [AT-9283] | 107 | 96.9 | 85.9 | 65.4 | 43.6 | 87.1 | 102 | 90.9 | 90.7 | 71.8 | 96.6 | 97.7 | 82.4 | 57.3 | 5.8 | 98.2 | 97.7 | 80.6 | 74.7 | 1.1 | 8 | 2 | 10.8 | 8.8 | 0.461 |  | 0.93 | 1.66 | 99.9 | 93.1 | 90.4 | 86.7 | 66.7 | 3.1 |  |
